Key:
[1] = system: ADAM17; experiment: Soluble CD16a released from transfected HEK293 cells stably expressing human γ chain, ELISA (shedding); assay type: cell-based; conditions: untreated and PMA-treated HEK293 cells stably expressing human γ chain
Description: FIG. 3. Effects of the engineered S197P mutation on CD16a and CD16b shedding. Transfected HEK293 (human embryonic kidney) cells separately expressed CD16b and CD16b/S197P (A) or CD16a and CD16a/S197P (B) at similar levels, as determined by flow cytometry (left panels). The different transfectants were treated with or without PMA (15 ng/ml for 30 minutes at 37° C.) and soluble levels of CD16 in the media supernatant were quantified by ELISA (right panels). Each treatment condition was repeated three times for each experiment and the data are representative of three independent experiments. Bar graphs show mean±SD. Statistical significance is indicated as ***P<0.001. […] Surface levels of L-selectin and CD16b/S197P on transfected and mock-transfected cells were measured using flow cytometry (histogram plots). Transfectants expressing L-selectin or L-selectin and CD16b/S197P were incubated in the presence or absence of PMA for 30 minutes at 37° C., and the mean fluorescence intensity (MFI) of L-selectin staining determined (bar graph). […] For all histogram plots, the x-axis=Log 10 fluorescence and the y-axis=cell number.
(§1) HEK293 cells (a human embryonic kidney cell line) and NK92 cells (a human NK cell line) (ATCC, Manassas, Va.) were cultured according to the depository's instructions. […] Construct expression was assessed by EGFP fluorescence and CD16 staining, as determined by flow cytometry. […]

[2] = system: NK92 cells; experiment: Cell surface CD16a levels on transduced NK92 cells after activation, flow cytometry; assay type: cell-based, human
Description: FIG. 4. Effects of the engineered S197P mutation on CD16a shedding in NK cells. NK92 cells transduced with empty vector (vector only), CD16a, or CD16a/S197P were treated without (Unstim.) or with PMA (100 ng/ml) for 30 minutes at 37° C. (A), with IL-12 and IL-18 (100 ng/ml and 400 ng/ml, respectively) for 24 hours at 37° C. (B), or with Raji cells and rituximab for 60 minutes at 37° C. (C). Cell surface levels of CD16a were determined by flow cytometry. Isotype-matched negative control antibody staining is indicated by a dotted line. (D) Parent NK92 cells and transduced cells expressing CD16a or CD16a/S197P were treated with Raji cells and rituximab in the presence or absence of the ADAM17 inhibitor BMS566394 (5 μM) for 60 minutes at 37° C. Soluble CD16a levels were determined by ELISA. Each treatment condition was repeated three times and the data are representative of three independent experiments. Bar graphs show mean±SD. Statistical significance is indicated as ***P<0.001. (E) NK92 cells expressing CD16a or CD16a/S197P were stained with the anti-ADAM17 mAbs M220, 623, 633, or an isotype-matched negative control antibody, as indicated. (F) CD56^+CD45^+ NK cells derived from mock-transduced iPSCs (left panel) or iPSCs expressing recombinant CD16a or CD16a/S197P (right panels) were incubated with or without K562 target cells for four hours at 37° C. For all histogram plots, the x-axis=Log 10 fluorescence, the y-axis=cell number, and the data are representative of at least 3 independent experiments.
as §1, with “instructions. HEK293 cells were transiently transfected with pcDNA3.1 with or without CD16b, CD16b/S197P, and/or L-selectin using Lipofectamine 2000 (Invitrogen, Carlsbad, Calif.) according to the manufacturer's instructions.” for “instructions.”

Substance	soluble levels of receptor in media supernatant compared to CD16a [1]	down-regulation in cell surface expression of CD16 ([2]; IL-12 100 ng/ml and IL-18 400 ng/ml, 24 hours at 37° C.)	down-regulation in cell surface expression of CD16 ([2]; PMA 100 ng/ml, 30 minutes at 37° C.)	down-regulation in cell surface expression of CD16 ([2]; Raji cells treated with rituximab, 60 minutes at 37° C.)
CD16a/S197P: Human CD16a (FcγRIIIa, SEQ ID NO:1) with serine-197 substituted by proline in the membrane proximal cleavage region; expressed recombinantly in cells	significantly lower levels	–	–	–
CD16a: Wild-type human IgG Fc receptor CD16a (FcγRIIIa), valine allelic variant, recombinant comparator [reference compound]	–	appreciable down-regulation	marked down-regulation	induced the down-regulation

— patent US11370825B2, “Polypeptides, cells, and methods involving engineered CD16” (Regents of the University of Minnesota, priority 2014, dated 2022)
